# Laboratory results published in US20240270762A1, “PENICILLIN-BINDING PROTEIN INHIBITORS” (priority 2021, published 2024).
# Legend:
# [1] = target: T1, PBP3 from Pseudomonas aeruginosa (PAO1) (Pseudomonas aeruginosa, UniProt G3XD46); assay: Bocillin-FL fluorescence polarization competition binding, P. aeruginosa PBP3; conditions: Binding affinity to P. aeruginosa PBP3; fluorescence polarization competition binding assay using Bocillin-FL; read-out: P. aeruginosa PBP3 Potency
# T1 construct: made in house
# T1 sequence (G3XD46 whole entry): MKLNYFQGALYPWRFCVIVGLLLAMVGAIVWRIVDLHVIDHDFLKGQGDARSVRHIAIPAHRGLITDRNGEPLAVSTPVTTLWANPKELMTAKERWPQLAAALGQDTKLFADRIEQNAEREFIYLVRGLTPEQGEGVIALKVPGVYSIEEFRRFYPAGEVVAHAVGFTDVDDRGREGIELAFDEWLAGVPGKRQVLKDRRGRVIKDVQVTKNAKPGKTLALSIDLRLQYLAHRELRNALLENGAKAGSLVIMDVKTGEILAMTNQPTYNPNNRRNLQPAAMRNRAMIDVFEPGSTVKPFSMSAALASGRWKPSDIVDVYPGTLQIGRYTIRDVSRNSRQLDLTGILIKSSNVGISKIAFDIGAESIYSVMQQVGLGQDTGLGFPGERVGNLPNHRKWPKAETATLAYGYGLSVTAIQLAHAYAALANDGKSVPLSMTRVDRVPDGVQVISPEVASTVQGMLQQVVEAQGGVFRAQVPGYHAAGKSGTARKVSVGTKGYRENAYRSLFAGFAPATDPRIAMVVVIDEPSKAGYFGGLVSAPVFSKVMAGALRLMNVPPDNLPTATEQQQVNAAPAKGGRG
# Procedure, shortened: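 Purified PBPs pre-incubated with inhibitor (E. coli PBP3 1.5 μM, 30 min; P. aeruginosa PBP3 0.75 μM, A. baumannii PBP1a 1 μM and PBP3 0.2 μM, 15 min), then Bocillin-FL 0.1 μM (0.05 μM for PBP1a) added; FP read up to 60 min. EC50 = concentration halving bound Bocillin-FL.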
# A. baumannii PBP2 = A. baumannii PBP2 (Acinetobacter baumannii, UniProt D0C8Z9); assay: Bocillin-FL competition binding via gel filtration, A. baumannii PBP2
# A. baumannii PBP2, sequence (D0C8Z9 whole entry): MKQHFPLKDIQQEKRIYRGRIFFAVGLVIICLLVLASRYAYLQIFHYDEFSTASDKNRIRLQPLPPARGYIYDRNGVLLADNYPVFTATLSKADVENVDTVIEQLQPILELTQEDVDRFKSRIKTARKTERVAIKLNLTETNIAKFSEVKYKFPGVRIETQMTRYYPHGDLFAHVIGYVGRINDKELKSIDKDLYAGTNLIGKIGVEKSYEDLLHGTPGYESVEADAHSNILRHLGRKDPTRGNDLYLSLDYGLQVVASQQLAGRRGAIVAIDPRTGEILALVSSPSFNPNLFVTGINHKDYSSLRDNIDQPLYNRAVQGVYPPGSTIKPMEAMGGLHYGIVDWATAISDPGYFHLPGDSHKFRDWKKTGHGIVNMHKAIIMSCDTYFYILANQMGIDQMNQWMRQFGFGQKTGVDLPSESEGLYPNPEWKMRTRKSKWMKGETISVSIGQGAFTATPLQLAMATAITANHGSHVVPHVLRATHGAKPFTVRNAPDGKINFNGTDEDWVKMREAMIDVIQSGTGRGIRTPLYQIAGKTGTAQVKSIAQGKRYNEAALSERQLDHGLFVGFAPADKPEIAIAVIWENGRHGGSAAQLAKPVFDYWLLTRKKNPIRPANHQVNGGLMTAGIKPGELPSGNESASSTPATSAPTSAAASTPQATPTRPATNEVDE
# Procedure, shortened: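 Enzyme was pre-incubated with rising inhibitor concentrations, then Bocillin-FL was added and incubated 15 minutes more. Bound probe was separated by gel filtration and fluorescence read. EC50 came from fitting fraction of PBP labelled versus inhibitor concentration to a Hill equation with ymin, ymax and n.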
# P. aeruginosa ATCC 27853 = assay: microbe, parasite or virus in culture; type: cell-based; conditions: Pseudomonas aeruginosa, ATCC27853, read-out: Minimum inhibitory concentration, P. aeruginosa ATCC 27853
# A. baumannii ATCC 19606 = assay: microbe, parasite or virus in culture; type: cell-based; conditions: Acinetobacter baumannii, ATCC19606, read-out: MIC, A. baumannii ATCC 19606
# P. aeruginosa ATCC 35151 = assay: microbe, parasite or virus in culture; type: cell-based; conditions: Pseudomonas aeruginosa, ATCC35151, read-out: Minimum inhibitory concentration, P. aeruginosa ATCC 35151
# P. aeruginosa CDC-0090 = assay: microbe, parasite or virus in culture; type: cell-based; conditions: Pseudomonas aeruginosa, CDC0090, read-out: Minimum inhibitory concentration, P. aeruginosa CDC-0090
# P. aeruginosa CDC-0095 = assay: microbe, parasite or virus in culture; type: cell-based; conditions: Pseudomonas aeruginosa, CDC0095, read-out: Minimum inhibitory concentration, P. aeruginosa CDC-0095
# A. baumannii CDC-0033 = assay: microbe, parasite or virus in culture; type: cell-based; conditions: Acinetobacter baumannii, CDC0033, read-out: MIC, A. baumannii CDC-0033
# A. baumannii CDC-0045 = assay: microbe, parasite or virus in culture; type: cell-based; conditions: Acinetobacter baumannii, CDC0045, read-out: MIC, A. baumannii CDC-0045
# A. baumannii CDC-0083 = assay: microbe, parasite or virus in culture; type: cell-based; conditions: Acinetobacter baumannii, CDC0083, read-out: MIC, A. baumannii CDC-0083
# [2] = test system: B. humptydooensis ATCC BAA-2767; assay: microbe, parasite or virus in culture; type: cell-based; conditions: Burkholderia humptydooensis, ATCCBAA2767, read-out: Minimum inhibitory concentration (MIC), B. humptydooensis ATCC BAA-2767
# P. aeruginosa CDC-0110 = assay: microbe, parasite or virus in culture; type: cell-based; conditions: Pseudomonas aeruginosa, CDC0110, read-out: Minimum inhibitory concentration, P. aeruginosa CDC-0110
SMILES,IC50 [1] [µM],EC50 (A. baumannii PBP2) [µM],MIC (P. aeruginosa ATCC 27853) [µg/mL],MIC (A. baumannii ATCC 19606) [µg/mL],MIC (P. aeruginosa ATCC 35151) [µg/mL],MIC (P. aeruginosa CDC-0090) [µg/mL],MIC (P. aeruginosa CDC-0095) [µg/mL],MIC (A. baumannii CDC-0033) [µg/mL],MIC (A. baumannii CDC-0045) [µg/mL],MIC (A. baumannii CDC-0083) [µg/mL],MIC [2] [µg/mL],MIC (P. aeruginosa CDC-0110) [µg/mL]
"O=C(NCCCN1CCN(C(=O)NC(C(=O)N[C@H]2Cc3ccc(F)c(C(=O)O)c3OB2O)c2cc(F)c(O)c(O)c2Cl)C(=O)C1=O)c1ccc(F)c(O)c1Cl (stereo partly drawn) [Example 412, (3R)-3-(2-(4-(3-(2-chloro-4-fluoro-3-hydroxybenzamido)propyl)-2,3-dioxopiperazine-1-carboxamido)-2-(2-chloro-5-fluoro-3,4-dihydroxyphenyl)acetamido)-7-fluoro-2-hydroxy-3,4-dihydro-2H-benzo[e][1,2]oxaborinine-8-carboxylic acid]",< 10,< 10,< 1,< 1,< 1,2 to 4,2 to 4,8 to 16,2 to 4,8 to 16,2 to 4,< 1
"Cc1cnccc1C(=O)NCCCN1CCN(C(=O)NC(C(=O)N[C@H]2Cc3ccc(F)c(C(=O)O)c3OB2O)c2cc(F)c(O)c(O)c2Cl)C(=O)C1=O (stereo partly drawn) [Example 297, (3R)-3-(2-(2-chloro-5-fluoro-3,4-dihydroxyphenyl)-2-(4-(3-(3-methylisonicotinamido)propyl)-2,3-dioxopiperazine-1-carboxamido)acetamido)-7-fluoro-2-hydroxy-3,4-dihydro-2H-benzo[e][1,2]oxaborinine-8-carboxylic acid]",< 10,10 to 50,< 1,< 1,< 1,< 1,< 1,2 to 4,< 1,< 1,< 1,< 1
"O=C(NCCCN1CCN(C(=O)NC(C(=O)N[C@H]2Cc3ccc(F)c(C(=O)O)c3OB2O)c2cc(F)c(O)c(O)c2Cl)C(=O)C1=O)c1ccncc1F (stereo partly drawn) [Example 400, (3R)-3-(2-(2-chloro-5-fluoro-3,4-dihydroxyphenyl)-2-(4-(3-(3-fluoroisonicotinamido)propyl)-2,3-dioxopiperazine-1-carboxamido)acetamido)-7-fluoro-2-hydroxy-3,4-dihydro-2H-benzo[e][1,2]oxaborinine-8-carboxylic acid]",< 10,10 to 50,2 to 4,< 1,< 1,2 to 4,2 to 4,2 to 4,< 1,2 to 4,2 to 4,< 1
"O=C(NCCCN1CCN(C(=O)NC(C(=O)N[C@H]2Cc3ccc(F)c(C(=O)O)c3OB2O)c2cc(F)c(O)c(O)c2Cl)C1=O)c1ccc(O)cc1 (stereo partly drawn) [Example 280, (3R)-3-(2-(2-chloro-5-fluoro-3,4-dihydroxyphenyl)-2-(3-(3-(4-hydroxybenzamido)propyl)-2-oxoimidazolidine-1-carboxamido)acetamido)-7-fluoro-2-hydroxy-3,4-dihydro-2H-benzo[e][1,2]oxaborinine-8-carboxylic acid]",< 10,10 to 50,2 to 4,< 1,< 1,2 to 4,8 to 16,2 to 4,< 1,2 to 4,2 to 4,2 to 4
O=C(NCCCN1CCN(C(=O)N[C@@H](C(=O)N[C@H]2Cc3ccc(F)c(C(=O)O)c3OB2O)c2cc(F)c(O)c(O)c2Cl)C(=O)C1=O)c1c(F)cc(O)cc1F (racemic) [Example 420],< 10,10 to 50,2 to 4,< 1,< 1,< 1,2 to 4,2 to 4,< 1,> 128,3,< 1
"O=C(NCCCN1CCN(C(=O)NC(C(=O)N[C@H]2Cc3ccc(F)c(C(=O)O)c3OB2O)c2cc(F)c(O)c(O)c2Cl)C(=O)C1=O)c1c(F)cncc1F (stereo partly drawn) [Example 402, (3R)-3-(2-(2-chloro-5-fluoro-3,4-dihydroxyphenyl)-2-(4-(3-(3,5-difluoroisonicotinamido)propyl)-2,3-dioxopiperazine-1-carboxamido)acetamido)-7-fluoro-2-hydroxy-3,4-dihydro-2H-benzo[e][1,2]oxaborinine-8-carboxylic acid]",< 10,10 to 50,2 to 4,< 1,< 1,< 1,< 1,2 to 4,< 1,2 to 4,2 to 4,< 1
"O=C(O)c1c(F)ccc2c1OB(O)[C@@H](NC(=O)C(NC(=O)N1CCN(C3CCN(S(=O)(=O)c4ccc(O)cc4)CC3)C(=O)C1=O)c1cc(F)c(O)c(O)c1Cl)C2 (stereo partly drawn) [Example 429, (3R)-3-(2-(2-chloro-5-fluoro-3,4-dihydroxyphenyl)-2-(4-(1-((4-hydroxyphenyl)sulfonyl)piperidin-4-yl)-2,3-dioxopiperazine-1-carboxamido)acetamido)-7-fluoro-2-hydroxy-3,4-dihydro-2H-benzo[e][1,2]oxaborinine-8-carboxylic acid]",< 10,< 10,2 to 4,< 1,< 1,< 1,2 to 4,2 to 4,< 1,8 to 16,> 128,< 1
"O=C(NCCCN1CCN(C(=O)NC(C(=O)N[C@H]2Cc3ccc(F)c(C(=O)O)c3OB2O)c2cc(F)c(O)c(O)c2Cl)C(=O)C1=O)c1cc(O)c(F)c(O)c1F (stereo partly drawn) [Example 415, (3R)-3-(2-(2-chloro-5-fluoro-3,4-dihydroxyphenyl)-2-(4-(3-(2,4-difluoro-3,5-dihydroxybenzamido)propyl)-2,3-dioxopiperazine-1-carboxamido)acetamido)-7-fluoro-2-hydroxy-3,4-dihydro-2H-benzo[e][1,2]oxaborinine-8-carboxylic acid]",< 10,10 to 50,< 1,< 1,< 1,< 1,< 1,2 to 4,2 to 4,2 to 4,8 to 16,< 1
"O=C(NCCCN1CCN(C(=O)N[C@@H](C(=O)N[C@H]2Cc3ccc(F)c(C(=O)O)c3OB2O)c2cc(F)c(O)c(O)c2Cl)C(=O)C1=O)c1ccncc1O [Example 296, (R)-3-((R)-2-(2-chloro-5-fluoro-3,4-dihydroxyphenyl)-2-(4-(3-(3-hydroxyisonicotinamido)propyl)-2,3-dioxopiperazine-1-carboxamido)acetamido)-7-fluoro-2-hydroxy-3,4-dihydro-2H-benzo[e][1,2]oxaborinine-8-carboxylic acid]",< 10,< 10,< 1,< 1,< 1,< 1,< 1,2 to 4,< 1,< 1,2 to 4,< 1
O=C(NCCCN1CCN(C(=O)N[C@@H](C(=O)N[C@H]2Cc3ccc(F)c(C(=O)O)c3OB2O)c2cc(F)c(O)c(O)c2Cl)C(=O)C1=O)c1ccc(O)cc1F (racemic) [Example 417],< 10,< 10,8 to 16,< 1,< 1,8 to 16,8 to 16,2 to 4,< 1,> 128,> 128,32 to 64
"O=C(NCCS(=O)(=O)N1CCN(C(=O)NC(C(=O)N[C@H]2Cc3ccc(F)c(C(=O)O)c3OB2O)c2cc(F)c(O)c(O)c2Cl)C1=O)c1ccncc1 (stereo partly drawn) [Example 288, (3R)-3-(2-(2-chloro-5-fluoro-3,4-dihydroxyphenyl)-2-(3-((2-(isonicotinamido)ethyl)sulfonyl)-2-oxoimidazolidine-1-carboxamido)acetamido)-7-fluoro-2-hydroxy-3,4-dihydro-2H-benzo[e][1,2]oxaborinine-8-carboxylic acid]",< 10,–,2 to 4,< 1,< 1,2 to 4,8 to 16,8 to 16,< 1,< 1,2 to 4,2 to 4
